Results: PMC5418314, “First-in-human phase I study of SOR-C13, a TRPV6 calcium channel inhibitor, in patients with advanced solid tumors” (Investigational New Drugs, 2017)
pIC50: −log10 of the molar value. Ends that are not written are not given here.

Experiments:
ovarian cancer xenograft = experiment: xenograft model of ovarian cancer, tumor inhibition; type: in vivo
breast cancer xenograft = experiment: xenograft model of breast cancer, tumor inhibition; type: in vivo
[1] = test system: advanced solid tumors of epithelial origin; experiment: Phase I anti-tumor activity (RECIST 1.1); type: in vivo, human
Experimental: (§1) Anti-tumor activity was evaluated by radiologic assessment of tumor size according to the New Response Evaluation Criteria in Solid Tumors (RECIST), Revised Guideline Version 1.1 [20] and changes in tumor-specific biomarker levels. The baseline radiologic assessment was performed ≤30 days prior to the first SOR-C13 dose. Tumor response was assessed after two cycles of treatment (between Days 15–21 of Cycle 2). For patients receiving additional cycles, tumor response was assessed after every 2 additional cycles, or earlier at the investigator’s discretion or as required by standard of care at the site.

CA 19–9 = CA 19–9 tumor biomarker levels in pancreatic cancer patients; type: in vivo, human
Experimental: as §1
For pharmacodynamic information changes of the plasma biomarkers ‘cleaved cytokeratin 18’, (ccK18) and TRPV6 mRNA levels, in response to treatment, were evaluated. Blood samples for the assessment of ccK18, TRPV6 mRNA or other tumor-specific biomarkers were collected within 24 h prior to the first infusion of SOR-C13, on Day 1 of Cycle 2, once between Days 15–21 of Cycle 2, during additional cycles, and at the Month 1 follow-up. We set a low basal level of ccK18 as 250 U/L as a cut-off point representing the 95th percentile median of healthy volunteers (Peviva M30 Apoptosense ELISA assay product literature).

TRPV6 = details: read-out: IC50, inhibition of TRPV6; cited from earlier work
Text: SOR-C13 is a short segment (13-mer) from the C-terminus of a paralytic peptide soricidin (accession number P0C2P6) discovered in the saliva of the Northern Short-tailed shrew (Blarina brevicauda), abundant in eastern North America. While not paralytic themselves, C-series peptides blocked calcium uptake by ovarian cancer cells in in vitro studies. […] TRPV6 is predominantly found in non-excitable tissues wi ...

With KEFLHPSKVDLPR [SOR-C13] as the sequence, how does the inhibition of tumors (ovarian cancer xenograft) read?
Its inhibition of tumors is “effective”.

And the inhibition of tumors (breast cancer xenograft)?
The inhibition of tumors was “effective”.

What about the “patients with stable disease after two cycles” value ([1]; 1.375 mg/kg, 90-min infusion) of the same sequence?
The value was “two out of the three patients”.

And the “patients with stable disease” value ([1]; 12 of 22 evaluable patients, after two cycles, RECIST 1.1)?
The value was 54.5%.

And the “patients with stable disease after 2 cycles” value ([1]; ovarian cancer (OVca) patients)?
Its value is “two of the four”.

And the “duration of stable disease” value ([1]; pancreatic cancer patient, 2.75 mg/kg, 90-min infusions)?
The value was “four cycles”.

And the “duration of stable disease” value ([1]; pancreatic cancer patient, 6.2 mg/kg, 90-min infusions)?
Its value is “over 10 cycles”.

And the “reduction from baseline in the sum of tumor diameters” value ([1]; pancreatic cancer patient, 6.2 mg/kg, 90-min infusions, after 4 cycles)?
The value was 27%.

What about the “duration of stable disease (cycles received)” value ([1]; patient with adenoid cystic carcinoma of the tongue, 4.13 mg/kg) of the same sequence?
The value was 18 cycles.

And the “decrease in CA 19–9” value (CA 19–9; pancreatic cancer patient treated at 6.25 mg/kg, after cycle 2)?
The value was 29%.

What about the “decrease in CA 19–9” value (CA 19–9; pancreatic cancer patient, 6.2 mg/kg, after cycle 4) of the same sequence?
The value was 55%.

What about the pIC50 (TRPV6) of the same sequence?
Its pIC50 is 7.85.
